# Target: T1, ΔTM-FlmC (FlmC81-335) (Lactiplantibacillus plantarum, UniProt F9UMI5)
# T1 construct: gene lp_1000
# Test: co-purification from E. coli; organic extraction of unfolded protein, TLC and UHPLC-HRMS
# Format: binding
# Details: lipid acquired from expression host; identity inferred from m/z 775.5789 (+, in-source dehydro form) and 387.2863 (2-), tentative
# T1 sequence (F9UMI5 entry or part of it, stated change not applied): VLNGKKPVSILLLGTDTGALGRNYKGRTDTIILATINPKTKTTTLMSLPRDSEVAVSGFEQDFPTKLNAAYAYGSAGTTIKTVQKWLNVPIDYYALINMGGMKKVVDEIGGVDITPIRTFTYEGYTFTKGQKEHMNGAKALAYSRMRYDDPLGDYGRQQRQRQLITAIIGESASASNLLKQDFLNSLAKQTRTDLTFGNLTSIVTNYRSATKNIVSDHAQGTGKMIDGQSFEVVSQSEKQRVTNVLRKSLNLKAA
smiles,measurement,value
CC(C)=CCCC(C)=CCCC(C)=CCCC(C)=CCCC(C)=CCCC(C)=CCCC(C)=CCCC(C)=CCCC(C)=CCCC(C)=CCOP(=O)(O)O [decaprenyl phosphate],"co-purification from E. coli; organic extraction of unfolded protein, TLC and UH",occurrence of a decaprenyl phosphate (dpr-P) ligand tightly bound to the protein was hypothesized
